Reference: patent publication US11479551B2, “MTA-cooperative PRMT5 inhibitors” (Mirati Therapeutics, Inc., priority 2019, dated 2022)

Key:
PRMT5/MEP50 complex [1] = target: T1, PRMT5/MEP50 complex (Homo sapiens (Human), UniProt O14744); assay: PRMT5:MEP50 FlashPlate Assay (histone H4 peptide substrate, plus and minus MTA); type: biochemical
Description: (§1) The PRMT5 inhibitory activity of compounds of the present invention was determined using either a PRMT5:MEP50 FlashPlate Assay (Reaction Biology Corporation) or a PRMT5:MEP50 HotSpot Assay (Reaction Biology Corporation).
1. PRMT5:MEP50 FlashPlate Assay

PRMT5/MEP50 complex [2] = target: T1, PRMT5/MEP50 complex; assay: PRMT5:MEP50 HotSpot Assay (full-length histone H2A substrate, plus and minus MTA); type: biochemical
Description: as §1
The assay uses recombinant full-length histone H2A as the PRMT5 substrate. […] The reaction was stopped and transferred to filter paper for detection. The amount of tritiated H2A in each sample was determined using a scintillation counter.

[3] = IC50 + 2 μM MTA (nM), in the presence of 2 μM MTA
[4] = in the absence of MTA, read-out: IC50
[5] = IC50 + 2 μM MTA, in the presence of 2 μM MTA

T1 sequence (O14744 2-637): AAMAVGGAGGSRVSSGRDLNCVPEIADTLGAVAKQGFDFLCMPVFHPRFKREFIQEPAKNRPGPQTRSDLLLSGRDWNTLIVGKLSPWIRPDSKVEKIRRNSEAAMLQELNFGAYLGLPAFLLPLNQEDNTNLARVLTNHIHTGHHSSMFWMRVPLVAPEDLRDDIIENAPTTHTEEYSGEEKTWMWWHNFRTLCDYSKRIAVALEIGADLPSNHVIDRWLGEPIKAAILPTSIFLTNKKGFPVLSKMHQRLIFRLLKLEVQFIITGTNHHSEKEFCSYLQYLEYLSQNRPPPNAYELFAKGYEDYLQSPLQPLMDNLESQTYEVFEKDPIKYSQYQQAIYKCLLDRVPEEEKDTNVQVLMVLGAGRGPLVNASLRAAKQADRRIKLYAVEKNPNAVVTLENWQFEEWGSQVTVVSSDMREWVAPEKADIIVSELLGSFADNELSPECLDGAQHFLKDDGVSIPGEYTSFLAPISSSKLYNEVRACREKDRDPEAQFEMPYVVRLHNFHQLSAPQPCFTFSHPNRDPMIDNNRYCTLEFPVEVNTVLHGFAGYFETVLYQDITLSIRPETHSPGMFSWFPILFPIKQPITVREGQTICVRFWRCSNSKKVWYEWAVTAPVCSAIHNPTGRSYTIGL
T1 sequence (Q9BQA1 2-342 partner): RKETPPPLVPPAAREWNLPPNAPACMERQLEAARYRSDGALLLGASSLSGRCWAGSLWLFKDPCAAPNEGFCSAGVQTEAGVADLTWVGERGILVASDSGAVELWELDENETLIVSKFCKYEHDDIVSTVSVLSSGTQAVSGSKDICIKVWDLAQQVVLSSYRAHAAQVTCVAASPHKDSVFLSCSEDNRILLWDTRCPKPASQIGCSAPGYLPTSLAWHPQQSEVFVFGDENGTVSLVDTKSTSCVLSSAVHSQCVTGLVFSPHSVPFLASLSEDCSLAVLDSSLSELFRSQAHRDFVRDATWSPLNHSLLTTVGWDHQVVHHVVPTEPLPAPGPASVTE

Compound | IC50 (PRMT5/MEP50 complex [1]; [3]) [nM] | IC50 (PRMT5/MEP50 complex [1]; [4]) [nM] | IC50 (PRMT5/MEP50 complex [2]; [5]) [nM] | IC50 (PRMT5/MEP50 complex [2]; [4]) [nM]
Cn1ncc(-c2ccc3c(=O)[nH]nc(CN)c3c2)c1-c1cccc(Cl)c1 [Example 4-92, 4-(aminomethyl)-6-(5-(3-chlorophenyl)-1-methyl-1H-pyrazol-4-yl)phthalazin-1(2H)-one] | 3.5 | 137 |  | 
Cn1ncc(-c2ccc3c(=O)[nH]nc(CN)c3c2)c1-c1ccc(F)cc1 [Example 4-95, 4-(aminomethyl)-6-(5-(4-fluorophenyl)-1-methyl-1H-pyrazol-4-yl)phthalazin-1(2H)-one] | 4.9 | 228 |  | 
Cc1ccc(-c2c(-c3ccc4c(=O)[nH]nc(CN)c4c3)cnn2C)cc1 [Example 4-97, 4-(aminomethyl)-6-(1-methyl-5-(p-tolyl)-1H-pyrazol-4-yl)phthalazin-1(2H)-one] | 1.6 | 49 |  | 
Cc1ccc(-c2c(-c3ccc4c(=O)[nH]nc(CN)c4c3)cnn2C)cn1 [Example 4-99, 4-(aminomethyl)-6-(1-methyl-5-(6-methylpyridin-3-yl)-1H-pyrazol-4-yl)phthalazin-1(2H)-one] | 15 | 547 |  | 
NCc1n[nH]c(=O)c2ccc(-c3cncn3Cc3ccccc3)cc12 [Example 4-108, 4-(aminomethyl)-6-(1-benzyl-1H-imidazol-5-yl)phthalazin-1(2H)-one] | 900 | 8650 |  | 
Cc1ncc(-c2ccc3c(=O)[nH]nc(CN)c3c2)n1CC#N [Example 4-109, 2-(5-(4-(aminomethyl)-1-oxo-1,2-dihydrophthalazin-6-yl)-2-methyl-1H-imidazol-1-yl)acetonitrile] | 120 | 4870 |  | 
Cc1nc2cncc(-c3ccc4c(=O)[nH]nc(CN)c4c3)c2o1 [Example 4-110, 4-(aminomethyl)-6-(2-methyloxazolo[4,5-c]pyridin-7-yl)phthalazin-1(2H)-one] | 1000 |  |  | 
NCc1n[nH]c(=O)c2ccc(-c3cncc([S+]([O-])c4ccccc4)c3)cc12 (stereo not shown) [Example 4-111, 4-(aminomethyl)-6-(5-(phenylsulfinyl)pyridin-3-yl)phthalazin-1(2H)-one] | 12 | 472 |  | 
CCOc1ccn2ncc(-c3ccc4c(=O)[nH]nc(CN)c4c3)c2c1 [Example 4-112, 4-(aminomethyl)-6-(5-ethoxypyrazolo[1,5-a]pyridin-3-yl)phthalazin-1(2H)-one] |  |  | 1020 | 
CC(C)Oc1ccn2ncc(-c3ccc4c(=O)[nH]nc(CN)c4c3)c2c1 [Example 4-113, 4-(aminomethyl)-6-(5-isopropoxypyrazolo[1,5-a]pyridin-3-yl)phthalazin-1(2H)-one] |  |  | 561 | 
NCc1n[nH]c(=O)c2ccc(-c3cnn4ccc(Oc5ccccc5)cc34)cc12 [Example 4-114, 4-(aminomethyl)-6-(5-phenoxypyrazolo[1,5-a]pyridin-3-yl)phthalazin-1(2H)-one] |  |  | 486 | 
Cn1ncc(-c2ccc3c(=O)[nH]nc(CN)c3c2)c1OCc1ccccc1 [Example 4-115, 4-(aminomethyl)-6-(5-(benzyloxy)-1-methyl-1H-pyrazol-4-yl)phthalazin-1(2H)-one] |  |  | 377 | 
Cn1ncc(-c2ccc3c(=O)[nH]nc(CN)c3c2)c1OCC1CC1 [Example 4-116, 4-(aminomethyl)-6-(5-(cyclopropylmethoxy)-1-methyl-1H-pyrazol-4-yl)phthalazin-1(2H)-one] |  |  | 1080 | 
Cn1ncc(-c2ccc3c(=O)[nH]nc(CN)c3c2)c1CCc1ccccc1 [Example 4-117, 4-(aminomethyl)-6-(1-methyl-5-phenethyl-1H-pyrazol-4-yl)phthalazin-1(2H)-one] |  |  | 536 | 
Cc1cccc(-c2c(-c3ccc4c(=O)[nH]nc(CN)c4c3)cnn2C)c1C#N [Example 4-118, 2-(4-(4-(aminomethyl)-1-oxo-1,2-dihydrophthalazin-6-yl)-1-methyl-1H-pyrazol-5-yl)-6-methylbenzonitrile] |  |  | 724 | 9920
Cn1ncc(-c2ccc3c(=O)[nH]nc(CN)c3c2)c1-c1cccc(Cl)c1C#N [Example 4-119, 2-(4-(4-(aminomethyl)-1-oxo-1,2-dihydrophthalazin-6-yl)-1-methyl-1H-pyrazol-5-yl)-6-chlorobenzonitrile] |  |  | 441 | 5260
Cn1ncc(-c2ccc3c(=O)[nH]nc(CN)c3c2)c1-c1cccc[n+]1[O-] [Example 4-120, 2-(4-(4-(aminomethyl)-1-oxo-1,2-dihydrophthalazin-6-yl)-1-methyl-1H-pyrazol-5-yl)pyridine 1-oxide] |  |  | > 10000 | 
NCc1n[nH]c(=O)c2ccc(C3CCCC3)cc12 [Example 5-1, 4-(aminomethyl)-6-cyclopentylphthalazin-1(2H)-one] | 72000 | > 100000 |  | 
NCc1n[nH]c(=O)c2ccc(-n3ccnc3)cc12 [Example 6-1, 4-(aminomethyl)-6-imidazol-1-yl-2H-phthalazin-1-one] | 5800 | > 100000 |  | 

Compound | IC50 (PRMT5/MEP50 complex [1]; [3]) [nM] | IC50 (PRMT5/MEP50 complex [1]; [4]) [nM] | IC50 (PRMT5/MEP50 complex [2]; [5]) [nM] | IC50 (PRMT5/MEP50 complex [2]; [4]) [nM]
CCCNc1ccc2c(CN)n[nH]c(=O)c2c1 [Example 6-2] | > 100000 | > 100000 |  | 
NCc1n[nH]c(=O)c2cc(Nc3ccccc3)ccc12 [Example 6-3, 4-(aminomethyl)-7-anilino-2H-phthalazin-1-one] | 9400 | > 100000 |  | 
NCc1n[nH]c(=O)c2cc(NCc3ccccc3)ccc12 [Example 6-4, 4-(aminomethyl)-7-(benzylamino)-2H-phthalazin-1-one] | 19000 |  |  | 
NCc1n[nH]c(=O)c2ccc(N3CCOCC3)cc12 [Example 6-5, 4-(aminomethyl)-6-morpholino-2H-phthalazin-1-one] | > 100000 | > 100000 |  | 
NCc1n[nH]c(=O)c2ccc(-c3cncc(Oc4ccncc4)c3)cc12 [Example 7-1, 4-(aminomethyl)-6-(5-(pyridin-4-yloxy)pyridin-3-yl)phthalazin-1(2H)-one] | 490 | 11200 |  | 
N#Cc1ccccc1Oc1cncc(-c2ccc3c(=O)[nH]nc(CN)c3c2)c1 [Example 7-2, 2-((5-(4-(aminomethyl)-1-oxo-1,2-dihydrophthalazin-6-yl)pyridin-3-yl)oxy)benzonitrile] | 16 | 246 |  | 
NCc1n[nH]c(=O)c2ccc(-c3cncc(Oc4ccc(F)cc4)c3)cc12 [Example 7-3, 4-(aminomethyl)-6-(5-(4-fluorophenoxy)pyridin-3-yl)phthalazin-1(2H)-one] | 15 | 388 |  | 
NCc1n[nH]c(=O)c2ccc(-c3cncc(Oc4ccc(Cl)cc4)c3)cc12 [Example 7-4, 4-(aminomethyl)-6-(5-(4-chlorophenoxy)pyridin-3-yl)phthalazin-1(2H)-one] | 5.6 | 151 |  | 
Cc1ccc(Oc2cncc(-c3ccc4c(=O)[nH]nc(CN)c4c3)c2)cc1 [Example 7-5, 4-(aminomethyl)-6-(5-(p-tolyloxy)pyridin-3-yl)phthalazin-1(2H)-one] | 2 | 64 |  | 
N#Cc1ccc(Oc2cncc(-c3ccc4c(=O)[nH]nc(CN)c4c3)c2)cc1 [Example 7-6, 4-((5-(4-(aminomethyl)-1-oxo-1,2-dihydrophthalazin-6-yl)pyridin-3-yl)oxy)benzonitrile] | 18 | 577 |  | 
N#Cc1ccc(F)cc1-c1cncc(-c2ccc3c(=O)[nH]nc(CN)c3c2)c1 [Example 8-1, 2-(5-(4-(aminomethyl)-1-oxo-1,2-dihydrophthalazin-6-yl)pyridin-3-yl)-4-fluorobenzonitrile] | 47 | 1650 |  | 
N#Cc1ccc(-c2cncc(-c3ccc4c(=O)[nH]nc(CN)c4c3)c2)c(C#N)c1 [Example 8-2, 4-(5-(4-(aminomethyl)-1-oxo-1,2-dihydrophthalazin-6-yl)pyridin-3-yl)isophthalonitrile] | 36 | 3150 |  | 
COc1ccc(-c2cncc(-c3ccc4c(=O)[nH]nc(CN)c4c3)c2)c(C#N)c1 [Example 8-3, 2-(5-(4-(aminomethyl)-1-oxo-1,2-dihydrophthalazin-6-yl)pyridin-3-yl)-5-methoxybenzonitrile] | 2.3 | 237 |  | 
N#Cc1cc(Cl)ccc1-c1cncc(-c2ccc3c(=O)[nH]nc(CN)c3c2)c1 [Example 8-4, 2-(5-(4-(aminomethyl)-1-oxo-1,2-dihydrophthalazin-6-yl)pyridin-3-yl)-5-chlorobenzonitrile] | 3.1 | 313 |  | 
N#Cc1cc(F)ccc1-c1cncc(-c2ccc3c(=O)[nH]nc(CN)c3c2)c1 [Example 8-5, 2-(5-(4-(aminomethyl)-1-oxo-1,2-dihydrophthalazin-6-yl)pyridin-3-yl)-5-fluorobenzonitrile] | 23 | 691 |  | 
N#Cc1ccc(Cl)cc1-c1cncc(-c2ccc3c(=O)[nH]nc(CN)c3c2)c1 [Example 8-6, 2-(5-(4-(aminomethyl)-1-oxo-1,2-dihydrophthalazin-6-yl)pyridin-3-yl)-4-chlorobenzonitrile] | 52 | 2140 |  | 
Cc1ccc(C#N)c(-c2cncc(-c3ccc4c(=O)[nH]nc(CN)c4c3)c2)c1 [Example 8-7, 2-(5-(4-(aminomethyl)-1-oxo-1,2-dihydrophthalazin-6-yl)pyridin-3-yl)-4-methylbenzonitrile] | 33 | 931 |  | 
COc1ccc(C#N)c(-c2cncc(-c3ccc4c(=O)[nH]nc(CN)c4c3)c2)c1 [Example 8-8, 2-(5-(4-(aminomethyl)-1-oxo-1,2-dihydrophthalazin-6-yl)pyridin-3-yl)-4-methoxybenzonitrile] | 20 | 795 |  | 
N#CCc1ccc2c(CN)n[nH]c(=O)c2c1 [Example 13-1, 2-[1-(aminomethyl)-4-oxo-3H-phthalazin-6-yl]acetonitrile] | 25000 | 89600 |  | 
